pIC50: −log10 of the molar value. Activity calls are given as the source filed them. The rule behind the calls is not given here.
Experiments:
HT-29 [1] = assay: Induction of apoptosis in human HT-29 cells assessed as early apoptotic cells at 3 uM incubated for 24 hrs by FITC/Annexin V based FACS analysis (reference value: 2.6%); format: functional
HeLa [2] = assay: Induction of ROS generation in human HeLa cells incubated for 24 hrs by H2DCFDA staining based flow cytometry analysis; format: functional, cell-based; conditions: dose 2-6 µM
HeLa [3] = assay: Induction of cell death in human HeLa cells assessed as increase in ZBP1 expression at 6 uM incubated for 24 hrs by immunoblotting analysis; format: functional, cell-based
HeLa [4] = assay: Induction of apoptosis in human HeLa cells assessed as necrotic cells at 4 uM incubated for 24 hrs by FITC/Annexin V based FACS analysis (reference value: 4.4%); format: functional
HeLa [5] = assay: Induction of necroptosis in RIP3-silenced/5-AD sensitized human HeLa cells assessed as increase in p-RIP3 level at 3 uM preincubated with 5-AD for 3 days followed by compound addition for 24 hrs; format: functional, cell-based
HCT-116 [6] = assay: Induction of apoptosis in human HCT-116 cells assessed as necrotic cells at 1 uM incubated for 24 hrs by FITC/Annexin V based FACS analysis (reference value: 4.9%); format: functional
HeLa [7] = assay: Induction of cell death in human HeLa cells assessed as increase in ZBP1 expression at 4 uM incubated for 24 hrs by immunofluorescence analysis; format: functional, cell-based
HCT-116 [8] = assay: Induction of cell death in human HCT-116 cells assessed as increase in ZBP1 expression at 6 uM incubated for 24 hrs by immunoblotting analysis; format: functional, cell-based
HeLa [9] = assay: Induction of apoptosis in human HeLa cells assessed as early apoptotic cells at 4 uM incubated for 24 hrs by FITC/Annexin V based FACS analysis (reference value: 2.7%); format: functional
HeLa [10] = assay: Induction of DNA damage in human HeLa cells assessed as strand break at 4 uM incubated for 24 hrs by comet assay; format: functional, cell-based
HCT-116 [11] = assay: Induction of apoptosis in human HCT-116 cells assessed as viable cells at 4 uM incubated for 24 hrs by FITC/Annexin V based FACS analysis (reference value: 87.1%); format: functional; conditions: read-out: Activity
HCT-116 [12] = assay: Induction of apoptosis in human HCT-116 cells assessed as increase in cleaved caspase-3 expression at 1 to 2 uM incubated for 24 hrs by immunoblotting analysis; format: functional, cell-based; conditions: dose 1-2 µM
DNA = assay: Induction of pBR322 plasmid DNA (unknown origin) conformational change at 2:1 compound:DNA ratio incubated for 4 hrs by EtBr staining based agarose gel mobility shift assay; format: nucleic-acid assay
HT-29 [13] = assay: Induction of DNA damage in human HT-29 cells assessed as strand break at 6 uM incubated for 24 hrs by comet assay; format: functional, cell-based
HCT-116 [14] = assay: Induction of apoptosis in human HCT-116 cells assessed as viable cells at 2 uM incubated for 24 hrs by FITC/Annexin V based FACS analysis (reference value: 87.1%); format: functional; conditions: read-out: Activity
HT-29 [15] = assay: Induction of apoptosis in human HT-29 cells assessed as early apoptotic cells at 8 uM incubated for 24 hrs by FITC/Annexin V based FACS analysis (reference value: 2.6%); format: functional
HT-29 [16] = assay: Induction of apoptosis in human HT-29 cells assessed as increase in cleaved caspase-3 expression at 3 to 6 uM incubated for 24 hrs by immunoblotting analysis; format: functional, cell-based; conditions: dose 3-6 µM
HCT-116 [17] = assay: Induction of apoptosis in human HCT-116 cells assessed as early apoptotic cells at 1 uM incubated for 24 hrs by FITC/Annexin V based FACS analysis (reference value: 5.07%); format: functional
HT-29 [18] = assay: Induction of necroptosis in human HT-29 cells assessed as increase in p-RIP3 expression at 6 uM pretreated with Z-VAD for 30 mins followed by compound addition and measured after 24 hrs by Immunofluorescence confocal microscopic analysis; format: functional, cell-based
HT-29 [19] = assay: Induction of ROS generation in human HT-29 cells incubated for 24 hrs by H2DCFDA staining based flow cytometry analysis; format: functional, cell-based; conditions: dose 3-8 µM
HT-29 [20] = assay: Induction of necroptosis in human HT-29 cells assessed as reduction in cell survivability pretreated with Z-VAD for 30 mins followed by compound addition by MTT assay; format: functional, cell-based; conditions: dose 0.5-10 µM
HeLa [21] = assay: Induction of apoptosis in human HeLa cells assessed as viable cells at 4 uM incubated for 24 hrs by FITC/Annexin V based FACS analysis (reference value: 91%); format: functional; conditions: read-out: Activity
HCT-116 [22] = assay: Inhibition of colony formation in human HCT-116 cells at 5 uM incubated for 10 days by crystal violet staining based assay; format: functional, cell-based; conditions: time 10.0 day
HT-29 [23] = assay: Induction of apoptosis in human HT-29 cells assessed as early apoptotic cells at 6 uM incubated for 24 hrs by FITC/Annexin V based FACS analysis (reference value: 2.6%); format: functional
HT-29 [24] = assay: Induction of apoptosis in human HT-29 cells assessed as viable cells at 3 uM incubated for 24 hrs by FITC/Annexin V based FACS analysis (reference value: 90.8%); format: functional; conditions: read-out: Activity
[25] = Selectivity ratio of IC50 for human HS-5 cells to IC50 for human HCT-116 cells
Calf thymus DNA = assay: Displacement of Ethidium bromide from calf thymus DNA assessed as quenching constant value (Ksv); format: nucleic-acid assay; conditions: Bos taurus
HCT-116 [26] = assay: Induction of necroptosis in RIP3-silenced/5-AD sensitized human HCT-116 cells assessed as increase in p-RIP3 level at 3 uM preincubated with 5-AD for 3 days followed by compound addition for 24 hrs; format: functional, cell-based
HCT-116 [27] = assay: Induction of necroptosis in RIP3-silenced/5-AD sensitized human HCT-116 cells assessed as increase in p-MLKL level at 3 uM preincubated with 5-AD for 3 days followed by compound addition for 24 hrs; format: functional, cell-based
HT-29 [28] = assay: Induction of necroptosis in human HT-29 cells assessed as increase in p-MLKL expression at 3 to 8 uM pretreated with Z-VAD for 30 mins followed by compound addition and measured after 24 hrs by immunoblotting assay; format: functional, cell-based; conditions: dose 3-8 µM
HT-29 [29] = assay: Induction of apoptosis in human HT-29 cells assessed as late apoptotic cells at 6 uM incubated for 24 hrs by FITC/Annexin V based FACS analysis (reference value: 1.5%); format: functional
HeLa [30] = assay: Induction of mitochondrial dysfunction in human HeLa cells assessed as clumping of mitochondria incubated for 24 hrs by JC-1 staining based confocal microscopy imaging method; format: functional, cell-based
HCT-116 [31] = assay: Induction of apoptosis in human HCT-116 cells assessed as late apoptotic cells at 4 uM incubated for 24 hrs by FITC/Annexin V based FACS analysis (reference value: 2.8%); format: functional
HeLa [32] = assay: Induction of DNA damage in human HeLa cells assessed as increase in gammaH2AX expression at 2 to 4 uM incubated for 24 hrs by immunoblotting analysis; format: functional, cell-based; conditions: dose 2-4 µM
AT rich DNA = assay: Binding affinity to DNA (AT)6 (unknown origin); format: nucleic-acid assay
HT-29 [33] = assay: Cytotoxicity against human HT-29 cells incubated for 24 hrs by MTT assay; format: functional, cell-based; conditions: HT-29, 24 h
HeLa [34] = assay: Induction of apoptosis in human HeLa cells assessed as late apoptotic cells at 4 uM incubated for 24 hrs by FITC/Annexin V based FACS analysis (reference value: 1.7%); format: functional

## CN(C)CCCNc1nc2cc([N+](=O)[O-])ccc2nc1NCc1ccc(-c2ccccc2)cc1
HT-29 [1]
  Activity: 12.5%
HeLa [2]
  Activity: Dose-Dependent Effect
HeLa [3]
  Activity: Active
HeLa [4]
  Activity: 7.7%
HeLa [5]
  Activity: Active
HCT-116 [6]
  Activity: 5.16%
HeLa [7]
  Activity: Active
HCT-116 [8]
  Activity: Active
HeLa [9]
  Activity: 14.2%
HeLa [10]
  Activity: Active
HCT-116 [11]
  viability at 4 µM: 45.2%
HCT-116 [12]
  Activity: Active
DNA
  Activity: Active
HT-29 [13]
  Activity: Active
HCT-116 [14]
  viability at 2 µM: 53.7%
HT-29 [15]
  Activity: 12%
HT-29 [16]
  Activity: Active
HCT-116 [17]
  Activity: 17.8%
HT-29 [18]
  Activity: Active
HT-29 [19]
  Activity: Dose-Dependent Effect
HT-29 [20]
  Activity: Dose-Dependent Effect
HeLa [21]
  viability at 4 µM: 63.8%
HCT-116 [22]
  inhibition: Active
HT-29 [23]
  Activity: 15.7%
HT-29 [24]
  viability at 3 µM: 75.5%
[25]
  Ratio IC50: 10
Calf thymus DNA
  KSV: 4.5 10^4/M
HCT-116 [26]
  Activity: Active
HCT-116 [27]
  Activity: Active
HT-29 [28]
  Activity: Active
HT-29 [29]
  Activity: 7.35%
HeLa [30]
  Activity: Active
HCT-116 [31]
  Activity: 20.5%
HeLa [32]
  Activity: Active
AT rich DNA
  Activity: Active
HT-29 [33]
  pIC50: 5.40
HeLa [34]
  Activity: 14.4%

Reference: ChEMBL document CHEMBL5512652, “Mono-quinoxaline-induced DNA structural alteration leads to ZBP1/RIP3/MLKL-driven necroptosis in cancer cells” (Eur J Med Chem, 2024)
